Reference: patent US9682069B2, “Methods of treating Dravet syndrome” (Ovid Therapeutics Inc., priority 2015, dated 2017)
Entries after “also recorded” stand apart in the source; their conditions may differ.

Assays:
[1] = in vivo, po
[2] = Study of driving performance after gaboxadol administration (Example 3); assay type: in vivo, human (healthy male and female subjects); conditions: for effect on memory test, body sway, DSST or critical tracking: cognitive and psychomotor test battery before the driving test
From the text: The study participants included healthy, male and female subjects between 21 and 45 years of age, with a valid drivers license for at least 3 years.
Following a cognitive and psychomotor test battery, the driving test started at 9 am and lasted for one hour.

[3] = three-month efficacy study, insomnia; cited from earlier work
[4] = Study of daytime performance after sleep restriction (Example 4); assay type: in vivo, human (healthy adults)
Description: The study included a 2-night single-blind placebo run-in period, a 4-night double-blind treatment period during which sleep was restricted to 5 hours and a 2-night single-blind placebo run-out period. The study included healthy male and female volunteers 18 to <55 years of age.
2-night run-in period: All patients received placebo
2-night run-out period: All patients received placebo
The primary endpoints included observations based on the Multiple Sleep Latency Test (MSLT) and Slow Wave Sleep (SWS) assessment.

[5] = 111 individuals with depression; cited from earlier work

For CCN(CC)CCN1C(=O)CN=C(c2ccccc2F)c2cc(Cl)ccc21 [Flurazepam], which “residual effect on primary endpoints Choice Reaction Time and Critical Flicker Fusion” value [1] is on record?
The value was “showed significant effect”.

For Oc1noc2c1CCNC2 [gaboxadol, 4,5,6,7-tetrahydroisoxazolo [5,4-c]pyridine-3-ol], which tolerability ([2]; both the evening and the middle-of-the-night dose, 15 mg) is on record?
The tolerability was “well tolerated”.

And the “effect on memory test, body sway, DSST or critical tracking” value [2]?
The value was “no effect”.

What about the “effects in sleep onset and sleep maintenance” value [3] of the same molecule?
Its value is “failed to show significant effects”.

What about the “daytime performance, effect sizes for the neurocognitive battery” value ([4]; gaboxadol 15 mg versus placebo) of the same molecule?
Its value is “no strong evidence that gaboxadol improves daytime performance”.

What about the “subjective daytime sleepiness versus placebo” value ([4]; gaboxadol 15 mg, Sleep Restriction period) of the same molecule?
The value was “trend towards less subjective daytime sleepiness”.

What about the “amount of slow wave sleep (SWS) versus placebo” value ([4]; gaboxadol 15 mg, Sleep Restriction period, p<0.001, 1 sided) of the same molecule?
Its value is “significantly more SWS; also recorded: increases the amount of slow wave sleep”.

And the “daytime sleepiness (MSLT) versus placebo” value ([4]; gaboxadol 15 mg, Sleep Restriction period, p=0.047, 1 sided)?
The value was “significantly less daytime sleepiness; also recorded: protective effect on reducing daytime sleepiness”.

What about the “MSLT, average difference versus placebo (longer)” value ([4]; gaboxadol 15 mg, last two Sleep Restriction days) of the same molecule?
The value was 2.01 min.

What about the “Karolinska Sleepiness Score (KSS), average difference versus placebo (less)” value ([4]; gaboxadol 15 mg, last two Sleep Restriction days, LDA model, p=0.058, 1 sided) of the same molecule?
Its value is 0.68.

What about the “SWS, average difference versus placebo (longer)” value ([4]; gaboxadol 15 mg, last two Sleep Restriction nights) of the same molecule?
Its value is 20.53 min.

And the “residual effect on primary endpoints Choice Reaction Time and Critical Flicker Fusion” value [1]?
The value was “did not show residual effect”.

And the “residual effects on other measurements (MSLT, DSST, Tracking, Memory tests, Body Sway, Leeds Sleep Evaluation Questionnaire)” value [1]?
The value was “did not show any signs of residual effects”.

With OC(c1ccccc1)(c1ccccc1)C1CCCCN1 (centres unmarked) [pipradrol] as the molecule, how does the “efficacy versus placebo in depression” value [5] read?
Its value is “not superior to placebo”.

With Cc1ccc(-c2nc3ccc(C)cn3c2CC(=O)N(C)C)cc1 [zolpidem] as the molecule, how does the “effect on driving performance, middle-of-the-night administration” value ([2]; dose at 4 am (gaboxadol 15 mg; zolpidem 10 mg), on-the-road driving test at 9 am) read?
Its value is “numerically greater effect”.

With CN1CCN(C(=O)OC2c3nccnc3C(=O)N2c2ccc(Cl)cn2)CC1 (centres unmarked) [zopiclone] as the molecule, how does the “effect on memory test, body sway, DSST or critical tracking” value [2] read?
The value was “had effect on several of these tests”.

And the “effect on driving performance, evening dose” value ([2]; evening dose before bed (gaboxadol 15 mg; zopiclone 7.5 mg), on-the-road driving test at 9 am)?
Its value is “numerically greater effect”.
